Square brackets hold non-standard residues; d marks the D form. Peptide text beside a SMILES is read from it. Phe(3-F) = N[C@@H](Cc1cccc(F)c1)C(=O)O; hPhe = N[C@@H](CCc1ccccc1)C(=O)O; Abu = CC[C@H](N)C(=O)O; azaGly = NNC(=O)O
Tests used:
[1] = molecular target: T1, Aspergillus DPP-IV (UniProt Q2UH35); assay: Aspergillus DPP-IV assay; type: biochemical
T1 construct: Aspergillus DPP-IV (Enzyme System Products, SPE01)
T1 sequence (Q2UH35 1-771): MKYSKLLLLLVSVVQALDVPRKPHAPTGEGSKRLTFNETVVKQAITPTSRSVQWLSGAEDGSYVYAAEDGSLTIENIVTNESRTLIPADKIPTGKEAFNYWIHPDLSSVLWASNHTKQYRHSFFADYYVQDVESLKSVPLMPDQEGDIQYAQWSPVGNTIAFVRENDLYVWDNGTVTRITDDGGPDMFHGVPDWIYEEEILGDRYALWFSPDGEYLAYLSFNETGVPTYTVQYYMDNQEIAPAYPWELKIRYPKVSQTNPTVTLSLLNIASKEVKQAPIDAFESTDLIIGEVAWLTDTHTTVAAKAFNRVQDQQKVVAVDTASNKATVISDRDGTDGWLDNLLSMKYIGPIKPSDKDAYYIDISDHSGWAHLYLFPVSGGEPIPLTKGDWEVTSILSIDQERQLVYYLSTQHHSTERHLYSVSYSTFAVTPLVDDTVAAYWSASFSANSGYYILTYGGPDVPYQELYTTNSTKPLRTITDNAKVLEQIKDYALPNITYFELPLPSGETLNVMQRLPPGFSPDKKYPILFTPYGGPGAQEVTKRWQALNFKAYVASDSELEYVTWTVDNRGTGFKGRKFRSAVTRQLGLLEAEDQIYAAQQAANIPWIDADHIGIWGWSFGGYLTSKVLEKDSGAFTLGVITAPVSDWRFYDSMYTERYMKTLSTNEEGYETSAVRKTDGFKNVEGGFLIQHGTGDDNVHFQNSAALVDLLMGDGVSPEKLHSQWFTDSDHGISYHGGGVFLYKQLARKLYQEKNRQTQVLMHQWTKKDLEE
Procedure: Using this assay, the selectivity of a compound of the invention for hDPP-I over Aspergillus DPP-IV was determined, using a fluorogenic substrate.
Aspergillus DPP-IV (Enzyme System Products, SPE01; 5 mU dissolved in 25 μL assay buffer, giving a stock with a concentration of a 0.2 mU/μL). Prior to running experiment, 5 μL of enzyme stock solution was diluted to 0.004 mU/μL with 245 μL buffer.
Gly-Pro-AFC*TFA (Enzyme System Products AF039; 10 mg) was dissolved in 1 mL DMSO, giving a 20 mM solution. Diluted further in buffer to. 1 mM.
The assay was performed in 96-well plates. 60 μL assay buffer was added to the well followed-by 10 μL 1% DMSO in assay buffer (control) or a compound of the invention (100 μM, corresponding to 10 μM in the assay). Incubated at 37° C., then 10 μL enzyme (corresponding to 0.04 mU in assay) was added, followed by 10 μL substrate (100 μM in the assay). The excitation wavelength was 400 nm, and the emission was measured at 505 nm for 10-20 minutes at 30° C. Each measurement was made in duplicate. In the software (SOFTmax Pro) used for data collection from the fluorometer (Molecular Devices: Gemini XS), it was ensured that the measured slopes were linear (R^2>0.99). Data were exported to GraphPad Prism and nonlinear regression was performed using the option Sigmoidal dose-response (variable slope).

[2] = system: β-tryptase; assay: Tryptase assay; type: biochemical, human
Procedure: Using this assay, the selectivity of a compound of the invention for hDPP-I over β-tryptase was determined, using a fluorogenic substrate.
0.1 M HEPES buffer (pH 7.5) with 0.5 M NaCl.
Rh-Skin β-tryptase (Promega # G7061) was diluted to a final stock solution of 0.08 μg/μL in assay buffer.
Rh-lung β-tryptase (Promega # G5631) was diluted to a final stock solution of 0.08 μg/μL in assay buffer.
Z-ARG-AMC*HCl (BACHEM I1130; 10 mg) was dissolved in 1 mL DMSO, giving a 20 mM solution. Km was determined to be >400 μM.
The assay was performed in 96-well plates. 85 μl assay buffer was added to the well followed by 5 μL enzyme stock. Then 5 μL substrate was added, and subsequently 5 μL 4% DMSO in assay buffer (control) or a compound of the invention (10 μM in the assay) The excitation wavelength was 380 nm, and the emission was measured at 460 nm for 10-20 minutes at […] Each measurement was mad in duplicate. In the software (SOFTmax Pro) used for data collection from the fluorometer (Molecular Devices: Gemini XS), it was ensured that the measured slopes were linear (R^2>0.99).
Data were exported to GraphPad Prism and nonlinear regression was performed using the option Sigmoidal dose-response (variable slope).

[3] = molecular target: T2, CYP2D6 (Homo sapiens, UniProt P10635); assay: CYP2D6 assay (Vivid CYP2D6 Cyan Screening Kit); type: in vitro ADME; details: 20 μM cutoff; read-out: Metabolism: CYP enzymes (20 μM cutoff or IC50) CYP2D6
T2 construct: purchased PanVera Vivid CYP2D6 Cyan Screening Kit
Procedure: Tubes thawed on ice. 2× reaction buffer dispensed (room temperature) in two eppendorf tubes (for Mix A and Mix B).
Controls or compounds of the invention: Diluted to a concentration of 50 μM. Positive control compound: α-naphthoflavone.
Negative controls: DMSO and H2O.
Mix A: 485 μL reaction buffer, 10 μL regeneration system, 5 μL Baculosome reagent. Mixed gently and placed on ice.
Mix B: 88.5 μL reaction buffer, 1.5 μL substrate, 10 μL 10 mM NADP^+.
In a 96-well plate (Costar c-3904), 40 μL of 50 μM sample dispensed. 50 μl Mix A added. Incubated 20 min. at rt. Then, 10 μl of Mix B added. Fluorescence determined (Molecular Devices, SPECTRAmax Gemini EM): Ex: 409 nm, Em: 460 nm, at 37° C. for 20 min. (Automix: 5 s, top read.).
Following the procedure for CYP1A2, using the appropriate kits below, the effect of a compound of the invention on the other CYP enzymes was determined:
Vivid® CYP2D6 Cyan Screening Kit from PanVera.

[4] = Metabolic stability in rat liver microsomes; type: in vitro ADME; details: pH 7.4; rat liver microsomes 0.3 mg/mL, test compound 1 μM, 37° C.; read-out: Metabolic stability (t1/2 in min.) Rat liver microsomes
Procedure: Assay for Determination of Metabolic Stability is Rat Liver Microsomes
The assay was performed at Cerep (Seattle) according to the protocol described by Kuhnz et. al. (Kuhnz, W., Gieschen, H. Drug Metab. Dispos., 26, 1120-1127), using rat liver microsomes (0.3 mg/mL), test compound (1 μM), NADP (1 mM), and G6P (5 mM), and G6PDHase (1 U/mL) with 0.6% methanol/0.6% acetonitrile in water. Incubation was performed at 37° C. in phosphate buffer (50 mM, pH=7.4), and the samples were analyzed for remaining product ion (selected reaction monitoring)by HPLC-MS/MS (Thermo Finnigan) at 0, 15, 30, 45 and 60 min. intervals.

T2 sequence (P10635 whole entry): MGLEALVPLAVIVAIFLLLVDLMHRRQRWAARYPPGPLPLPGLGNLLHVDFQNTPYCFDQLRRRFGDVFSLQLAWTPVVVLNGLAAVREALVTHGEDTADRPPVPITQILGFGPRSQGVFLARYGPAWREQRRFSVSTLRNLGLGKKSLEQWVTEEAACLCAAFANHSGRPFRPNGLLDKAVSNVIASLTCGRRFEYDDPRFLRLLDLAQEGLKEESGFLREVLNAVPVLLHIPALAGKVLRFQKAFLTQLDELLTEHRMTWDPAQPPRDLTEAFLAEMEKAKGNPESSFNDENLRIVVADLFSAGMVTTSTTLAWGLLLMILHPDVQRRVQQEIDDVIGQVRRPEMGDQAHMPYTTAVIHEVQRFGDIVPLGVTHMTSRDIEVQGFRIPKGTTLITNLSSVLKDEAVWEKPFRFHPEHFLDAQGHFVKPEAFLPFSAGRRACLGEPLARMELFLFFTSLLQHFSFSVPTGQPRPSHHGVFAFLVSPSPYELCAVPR

CC[C@H](N)C(=O)NNC(=O)N[C@@H](CCc1ccccc1)C(=O)N[C@@H](Cc1cccc(F)c1)C(N)=O [Example 11, 1-(2S-2-Aminobutanoyl)-4-[2S-N-[2S-3-(m-fluorophenyl)propan-2-yl-amide]-4-phenylbutan-2-yl-amide]semicarbazide] (H-[Abu][azaGly][hPhe][Phe(3-F)]-NH2)
Inhibition of DPP-IV (in words) [1]: does not inhibit | IC50 ([1]; Aspergillus DPP-IV, 10 μM cutoff, read-out: Secondary enzymatic screening (10 μM cutoff or IC50) DPP-IV): > 10 µM | Inhibition of tryptase (in words) [2]: does not inhibit | IC50 ([2]; β-tryptase, 10 μM cutoff, read-out: Secondary enzymatic screening (10 μM cutoff or IC50) Tryptase): > 10 µM | IC50 [3]: > 20 µM | half-life at 1 μM [4]: 23 min
